The text below walks through data of US11761951B2, “Methods of selecting therapeutic molecules” (Bristol-Myers Squibb Company, priority 2015, dated 2023).

For data set [1], the system named is rat primary cortical neurons. Description: Primary cortical neuron spontaneous calcium oscillation (FLIPR, fluo-4 AM). Format: cell-based. The settings on record: primary neuronal spontaneous calcium oscillations. Here is the method: (§1) To measure primary cortical neuron spontaneous calcium oscillation, rat primary cortical neurons were prepared from Sprague-Dawley rat embryos (E19). Cells were plated 25,000 cells/well onto 384 well poly-D-lysine coated FLIPR plates (Greiner Bio-One) in 25 μl/well Neurobasal media containing B27 supplement and 2 mM glutamine (day 1 in vitro, DIV1). Cells were grown for 11 days at 37° C. in 5% CO2 and fed with 25 μl of additional media on day 4 in vitro (“DIV04”) and day 8 in vitro (“DIV08”) for use on day 11 in vitro (“DIV11”). […] After 1 hr 20 μl of room temperature assay buffer was added and the cells were allowed to equilibrate to room temperature for 10 additional minutes and placed in the fluorescent imaging plate reader (FLIPR). Baseline signal (measurement of intracellular calcium) was read for 100 seconds (1 reading/second) before the addition of anti-sense oligomers. […] FLIPR signal was read for an additional 200 seconds (1 reading/second) after the addition of oligomer. A second 5 minute post addition plate read (300 one second points) on the FLIPR was conducted to allow for additional data capture. Raw data from the 5 minute read was exported and, using Excel, spike amplitude and frequency was calculated. Calculations were performed by measuring the average FLIPR signal over the 300 second read for control (non-treated) wells. […]

The subject of data set [2] is central nervous system (CNS) network activity. Kind of data set: CNS network activity in vivo (data not shown).
For data set [3], the system named is AMPA receptor. Description: AMPA receptor mediated spontaneous calcium oscillations in primary neurons. Format: cell-based, rat. The settings on record: 25 μM oligomer; presence or absence of 1 mM MgCl2 representing 100% control. Here is the method:
as §1

Data set [4] concerns NMDA receptor. Description: NMDA receptor mediated spontaneous calcium oscillations in primary neurons. Particulars: 25 μM oligomer; presence or absence of 1 mM MgCl2 representing 100% control. Format: cell-based, rat. Here is the method:
as §1

For data set [5], the system named is spontaneous neuronal activity. Kind of data set: Electrophysiologic spontaneous neuronal activity in vitro (data not shown). Format: cell-based.

For “6-Cyano-7-nitroquinoxaline-2,3-dione [CNQX]”, the “reduction of calcium oscillations (total AMPA response in the assay)” value in data set [1] (CNQX 3 μM) is on record as 20%.

Turning to “TGTgatgcaggaGTT (antisense TGTGATGCAGGAGTT; listed as DNA, chemistry not given here) [ASO-00007]”, the “impact on central nervous system (CNS) network activity in vivo” value in data set [2] is “negatively impact”. The “inhibition of AMPA receptor mediated calcium oscillations” value in data set [3] is recorded as “inhibited AMPA receptor”. Besides, the “inhibition of NMDA receptor mediated calcium oscillations” value in data set [4] is reported as “not NMDA receptor”. Besides, the “impact on electrophysiologic spontaneous neuronal activity in vitro” value in data set [5] is given as “negatively impact”.

Take `[Cl-].[Cl-].[Mg+2]` [MgCl2]: in data set [1] (1 mM MgCl2), the “reduction of calcium oscillations when NMDA receptor function was blocked” value is reported as “about 80%”.
